32 compounds from ChEMBL document CHEMBL3997775, “Challenges and Opportunities in the Development of Serine Synthetic Pathway Inhibitors for Cancer Therapy” (J Med Chem, 2017) can be followed below.

Values after ≈ are worked out from the molar mass of the structure shown.

Tested on in one series: not listed separately
Nature of the series: Lipophilicity, logD of the compound. Conditions: octanol/water. In kind it is physicochemical.
With `O=C(COc1cc2[nH]c(C(=O)N[C@H](CO)c3ccc(C(=O)O)cc3)cc2cc1Cl)NCCO`, the pH-dependent lipophilicity (logD) was less than -1.

Tested on in a further series: not listed separately
Nature of the series: Solubility of the compound. Type of series: physicochemical.
Conditions: not given
In turn, `O=C(COc1cc2[nH]c(C(=O)N[C@H](CO)c3ccc(C(=O)O)cc3)cc2cc1Cl)NCCO` showed a solubility of 973 µM (≈ 463 µg/mL).

For the next series, the target named is T1, D-3-phosphoglycerate dehydrogenase (Homo sapiens, UniProt O43175).
T1 sequence (O43175 whole entry): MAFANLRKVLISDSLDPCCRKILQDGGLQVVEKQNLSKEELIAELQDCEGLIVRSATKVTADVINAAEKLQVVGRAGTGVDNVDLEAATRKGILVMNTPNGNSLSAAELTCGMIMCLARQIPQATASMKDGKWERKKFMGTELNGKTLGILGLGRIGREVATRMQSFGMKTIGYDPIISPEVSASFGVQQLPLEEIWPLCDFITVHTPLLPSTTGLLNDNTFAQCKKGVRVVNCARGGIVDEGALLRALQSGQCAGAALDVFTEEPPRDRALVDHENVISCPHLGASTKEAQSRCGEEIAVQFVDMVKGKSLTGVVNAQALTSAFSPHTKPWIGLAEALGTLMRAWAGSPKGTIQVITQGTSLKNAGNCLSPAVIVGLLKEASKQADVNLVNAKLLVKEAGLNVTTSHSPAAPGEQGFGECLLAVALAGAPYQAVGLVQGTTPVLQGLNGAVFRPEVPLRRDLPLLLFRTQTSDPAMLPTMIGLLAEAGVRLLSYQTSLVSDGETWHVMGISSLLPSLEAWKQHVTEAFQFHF
The series can be described thus: Inhibition of full length PHGDH (unknown origin) using 3-phosphoglycerate as substrate incubated for 60 mins in presence of PSAT1, PSPH by resazurin based diaphorase coupled assay.
Conditions: not given
In the case of `O=C(c1cc(-c2ccccc2)n[nH]1)N1CCC2C=C(S(=O)(=O)Nc3ncccn3)C=CC21` (stereo not drawn), the IC50 is greater than 100 µM.
On the same count and under the same terms, the figure for `Cc1c(-c2ccccc2)n[nH]c1C(=O)Nc1ccc(S(=O)(=O)Nc2ncccn2)cc1` is greater than 100 µM; for `O=C(Nc1ccc(S(=O)(=O)N2CCCCC2)cc1)c1cc(-c2ccccc2O)n[nH]1` it is greater than 100 µM.
The same measure, in the same setting: the figure for `O=C(Nc1ccc(S(=O)(=O)NCc2ccco2)cc1)c1cc(-c2ccccc2O)n[nH]1` is greater than 100 µM.
For `NS(=O)(=O)c1ccc(NC(=O)c2cc(-c3ccccc3O)[nH]n2)cc1`, the half-inhibitory concentration (IC50) is greater than 100 µM.
On the same count and under the same terms, under `O=C(Nc1ccc(S(=O)(=O)Nc2ccccn2)cc1)c1cc(-c2ccccc2)n[nH]1` stands 50 to 100 µM; under `O=C(Nc1ccc(S(=O)(=O)Nc2ncccn2)cc1)c1cc(-c2ccccc2)nn1-c1ccccc1`, greater than 100 µM.
Still for that read-out and setting: the figure for `Nc1ncccc1-c1cc(C(=O)Nc2ccc(S(=O)(=O)Nc3ncccn3)cc2)[nH]n1` is greater than 100 µM; for `O=C(Nc1ccc(S(=O)(=O)Nc2ncccn2)cc1)c1cc(-c2ccccc2)on1` it is greater than 100 µM.
On to `COc1ccccc1-c1cc(C(=O)Nc2ccc(S(=O)(=O)Nc3ncccn3)cc2)[nH]n1`, for which the IC50 is less than 50 µM.
Still for that read-out and setting: under `CN(c1ncccn1)S(=O)(=O)c1ccc(NC(=O)c2cc(-c3ccccc3)n[nH]2)cc1` stands greater than 100 µM; under `CN(c1ncccn1)S(=O)(=O)c1ccc(NC(=O)c2cc(-c3ccccc3O)n[nH]2)cc1`, greater than 100 µM; under `O=C(Nc1ccc(S(=O)(=O)Nc2ncccn2)cc1)c1cc(-c2ccccc2O)n[nH]1`, less than 50 µM.
Regarding `O=C(Nc1ccc(S(=O)(=O)Nc2ncccn2)cc1)c1cc(-c2ccccc2F)n[nH]1`, the half-inhibitory concentration (IC50) is less than 50 µM.
On the same count and under the same terms, under `O=C(Nc1ccc(S(=O)(=O)Nc2ccccn2)cc1)c1cc(-c2ccccc2O)n[nH]1` stands greater than 100 µM; under `O=C(Nc1ccc(S(=O)(=O)NCCCN2CCOCC2)cc1)c1cc(-c2ccccc2O)n[nH]1`, greater than 100 µM; under `O=C(Nc1ccc(S(=O)(=O)Nc2ncccn2)cc1)c1cc(-c2ccccc2)no1`, greater than 100 µM.
On the same count and under the same terms, the figure for `O=C(Nc1ccc(S(=O)(=O)Nc2ncccn2)cc1)c1cc(-c2ccccc2)n[nH]1` is less than 50 µM; for `Cc1cc(C)nc(NS(=O)(=O)c2ccc(NC(=O)c3cc(-c4ccccc4)n[nH]3)cc2)n1` it is less than 50 µM; for `Cn1nc(-c2ccccc2)cc1C(=O)Nc1ccc(S(=O)(=O)Nc2ncccn2)cc1` it is less than 50 µM.
On the same count and under the same terms, the figure for `O=C(Nc1ccc(S(=O)(=O)Nc2ncccn2)cc1)c1cc(-c2ccccc2C(=O)O)n[nH]1` is greater than 100 µM.
Take `Cc1ccnc(NS(=O)(=O)c2ccc(NC(=O)c3cc(-c4ccccc4O)n[nH]3)cc2)n1`: the IC50 was less than 50 µM.

A further series deals with T2, D-3-phosphoglycerate dehydrogenase (Homo sapiens) (UniProt O43175).
T2 sequence (whole entry): T1 sequence (O43175 whole entry)
The series can be described thus: Binding affinity to human N- terminal His6-tagged PHGDH (1 to 533 residues) expressed in Escherichia coli Rosetta (DE3) assessed as change in melting temperature by SYPRO orange dye based DSF assay.
Conditions: not given
Consider `Oc1noc2ccccc12`, for which the ΔTm came to 2.5 °C.
The same measure, in the same setting: the figure for `O=C1COc2cc(O)ccc21` is 1.7 °C.
On the same count and under the same terms, the figure for `Cc1cccc2cc[nH]c12` is 2.4 °C; for `NC(=O)c1ccc(F)c(Cl)c1` it is 2.3 °C.
The same measure, in the same setting: the figure for `COc1ccc(NC(C)=O)cc1Cl` is 1.3 °C; for `Cn1nc(-c2ccccc2)cc1N` it is 2.2 °C; for `Nc1cccc(-c2cnco2)c1` it is 1.4 °C.

The target of a further series is T1, D-3-phosphoglycerate dehydrogenase.
Conditions: not given
Consider `Cc1cccc(NC(=S)N2CCN(c3cccc(C(F)(F)F)c3)CC2)c1`, for which the IC50 was greater than 57 µM.
The same measure, in the same setting: the figure for `Cc1cc(C)nc(NC(=S)N2CCN(c3cccc(C(F)(F)F)c3)CC2)c1` is 6.5 µM.

As usually defined, the logD is lipophilicity at a set pH, counting ionised and neutral species. High values mean higher lipophilicity, low ones lower lipophilicity. One may read the solubility as the concentration that dissolves in the medium under given conditions. As a reminder, the IC50 is the point on the concentration scale where inhibition reaches its midpoint. The ΔTm is the shift of the melting midpoint relative to a reference.
